# Paper PMC12040169 (PLOS Biology, 2025)
# Assay: in vitro
# Settings: human, hela cells, % viability
row,SMILES,"viability at 28.5 h, 10 µM"
1,Cc1csc2ncc(C(=O)NCc3ccc4c(c3)OCO4)c(=O)n12 [CBK287292],109%
2,CCOc1ccc2nc(NC(=O)CC)sc2c1 [CBK287295],107%
3,COc1ccc(-c2cn3cccnc3n2)cc1NC(=O)c1ccccc1 [CBK287296],73.8%
4,O=C(CSc1ccc(-c2ccncc2)nn1)Nc1ccc(F)cc1 [CBK287297],91%
5,CC1CCc2nc(NC(=O)c3ccccc3)sc2C1 (stereo not drawn) [CBK287298],97.2%
6,COc1ccc(C(=O)Nc2nc3c(C)cccc3s2)c(OC)c1 [CBK287301],82.6%
7,Cc1ccc(C(=O)Nc2nc3ccc4nc(C)sc4c3s2)cc1 [CBK287305],91.8%
8,COc1ccc(C(=O)Nc2nc3ccc(OC)cc3s2)cc1 [CBK287306],96.5%
9,CCOc1cccc2sc(NC(=O)CC)nc12 [CBK287307],86.5%
10,Cc1cc(C)c2nc(NC(=O)c3ccccc3)sc2c1 [CBK287308],97.9%
11,CC(=O)c1ccc(C(=O)Nc2ccc3nc(C)sc3c2)cc1 [CBK287310],95.5%
12,COc1ccc(C(=O)Nc2nc3ccc(NC(C)=O)cc3s2)cc1OC [CBK287311],101%
13,CC(=O)Nc1nc(-c2cc3ccccc3oc2=O)cs1 [CBK287312],106%
14,Cc1ccn2cc(-c3cc4c(ccc5ccccc54)oc3=O)nc2c1 [CBK287313],100%
15,CC(=O)c1sc(NC(=O)c2ccccc2Oc2ccccc2)nc1C [CBK287314],90.9%
16,CC(=O)Nc1nc(-c2ccc(Cl)s2)cs1 [CBK287317],89.5%
17,CC1(C)CC(=O)c2sc(NC(=O)c3ccccc3)nc2C1 [CBK287318],85.6%
18,O=C(Cc1ccccc1)Nc1ncc(Cc2ccccc2)s1 [CBK287322],95.6%
19,O=C(CSc1nnc2ccccn12)Nc1ccccc1 [CBK287328],109%
20,CC(=O)Nc1nnc(-c2ccc(Cl)cc2)s1 [CBK287331],94.4%
21,CC(=O)c1sc(NC(=O)c2ccc(N3C(=O)CCC3=O)cc2)nc1C [CBK287334],86.5%
22,CC(=O)Nc1nc2ccc(S(C)(=O)=O)cc2s1 [CBK287336],110%
23,CS(=O)(=O)c1ccc2nc(NC(=O)c3cccs3)sc2c1 [CBK287340],92.6%

row,SMILES,"viability at 28.5 h, 10 µM"
1,O=C(CN1C(=O)c2ccccc2C1=O)Nc1nc(-c2ccccc2)cs1 [CBK287343],106%
2,O=C(CN1C(=O)CCC1=O)Nc1nc2ccccc2s1 [CBK287345],97.7%
3,C=CCNC(=O)CSc1nc2sc(C)c(C)c2c(=O)[nH]1 [CBK287350],88.2%
4,COc1ccc2nc(NC(=O)c3cccc(N4C(=O)CCC4=O)c3)sc2c1 [CBK287351],108%
5,COc1ccc(C2C(C(=O)Nc3ccccc3)=C(C)Nc3ncnn32)cc1 (stereo not drawn) [CBK287353],103%
6,Clc1ccc(-n2ncc3c(NCc4ccccc4)ncnc32)cc1 [CBK287355],95.1%
7,Cc1nnc(NC(=O)c2ccc3c(c2)OCO3)s1 [CBK287358],104%
8,COc1ccc(CC(=O)Nc2nnc(C)s2)cc1OC [CBK287359],113%
9,Cc1nnc(NC(=O)Cc2ccc(F)cc2)s1 [CBK287360],103%
10,COc1ccc2nc(NC(=O)c3ccc4ncsc4c3)sc2c1 [CBK287364],94.8%
11,COc1cccc2sc(NC(=O)c3ccc4ncsc4c3)nc12 [CBK287365],98.5%
12,Cc1ccc2nc(NC(=O)C3COc4ccccc4O3)sc2c1 (stereo not drawn) [CBK287366],103%
13,COc1ccc(NC(=O)c2ccc3ncsc3c2)cc1 [CBK287368],107%
14,O=C(NCc1ccccc1)c1cnc2n(c1=O)CCS2 [CBK287371],79.7%
15,CC(NC(=O)c1cnc2n(c1=O)CCS2)c1ccccc1 (stereo not drawn) [CBK287372],103%
16,O=C(NCCC1=CCCCC1)c1cnc2n(c1=O)CCS2 [CBK287373],89.8%
17,Cc1cccc(NC(=O)c2cnc3n(c2=O)CCS3)c1 [CBK287375],108%
18,O=C(Nc1ccc(Oc2ccccc2)cc1)c1cnc2n(c1=O)CCS2 [CBK287377],95.1%
19,O=C(Nc1ccc(OCc2ccccc2)cc1)c1cnc2n(c1=O)CCS2 [CBK287378],91.3%
20,O=C(Nc1cccc(Cl)c1Cl)c1cnc2n(c1=O)CCS2 [CBK287380],95.1%
21,O=C(Nc1ccc(F)cc1Cl)c1cnc2n(c1=O)CCS2 [CBK287382],104%
22,COc1ccc(C)cc1NC(=O)c1cnc2n(c1=O)CCS2 [CBK287383],108%
23,COc1ccc(Cc2nnc(Nc3ccc(OC)cc3)[nH]c2=O)cc1 [CBK287385],92.9%

row,SMILES,"viability at 28.5 h, 10 µM"
1,Brc1ccc(Nc2ncnc3nc[nH]c23)cc1 [CBK287386],105%
2,COc1ccc(NC(=O)CSc2ncnc3c2oc2ccccc23)c(OC)c1 [CBK287395],87%
3,O=C(CSc1ncnc2c1oc1ccccc12)NC1CCCCC1 [CBK287396],95.4%
4,O=C(CSc1ncnc2c1oc1ccccc12)NCc1ccccc1 [CBK287397],101%
5,COc1ccc(C)c2sc(NC(=O)c3sc(C)nc3C)nc12 [CBK287401],74%
6,O=C(Nc1nnc(-c2ccc3c(c2)OCCO3)o1)c1cccc(F)c1 [CBK287402],101%
7,O=C(Nc1nnc(-c2ccc3c(c2)OCCO3)o1)c1ccccc1F [CBK287405],112%
8,Cc1cccc(C(=O)Nc2nnc(C3=COCCO3)o2)c1 [CBK287406],94%
9,O=C(Nc1nnc(C2=COCCO2)o1)c1cccc(F)c1 [CBK287408],85.3%
10,COc1cc(C(=O)Nc2nnc(C3=COCCO3)o2)cc(OC)c1OC [CBK287410],97.6%
11,O=C(Nc1nnc(C2=COCCO2)o1)c1ccco1 [CBK287412],95.5%
12,Cc1ccc(C(=O)Nc2nnc(C3=COCCO3)o2)cc1C [CBK287413],104%
13,O=C(Cc1cccc2ccccc12)Nc1nnc(C2=COCCO2)o1 [CBK287414],86.6%
14,O=C(Nc1nnc(C2=COCCO2)o1)c1cc(Cl)cc(Cl)c1 [CBK287418],91.1%
15,O=C(Nc1nnc(C2=COCCO2)o1)c1ccc(Cl)cc1Cl [CBK287419],78%
16,O=C(Nc1nnc(-c2ccco2)o1)c1ccccc1 [CBK287420],96.3%
17,COc1cccc(C(=O)Nc2nnc(-c3ccco3)o2)c1 [CBK287421],106%
18,O=C(Nc1nnc(-c2ccco2)o1)c1cccc(C(F)(F)F)c1 [CBK287422],88.6%
19,O=C(Nc1nnc(-c2ccco2)o1)C(c1ccccc1)c1ccccc1 [CBK287424],91.9%
20,CC(=O)Nc1nnc(-c2ccc3c(c2)CCCC3)o1 [CBK287426],88%
21,N#Cc1ccc(C(=O)Nc2nnc(-c3ccccn3)o2)cc1 [CBK287428],100%
22,Cc1cccc(C(=O)Nc2nnc(-c3ccncc3)o2)c1 [CBK287430],91.5%
23,COc1cc2ccccc2cc1C(=O)Nc1nnc(-c2ccncc2)o1 [CBK287432],93.1%
